Data published in article PMC10584003 (The Journal of Clinical Endocrinology and Metabolism, 2023).
Entries after “also recorded” stand apart in the source; their conditions may differ.

How the values were obtained:
[1] = test system: GLP-1R variants S79L, R421W, and A449V; experiment: β-arrestin 2 recruitment; format: cell-based, human; details: HEK293 cells, BRET with GRK6, LoS variants S79L
[2] = test system: GLP-1R, alanine at position 87; details: ref [44]; cited from earlier work
[3] = test system: GLP-1R, alanine at position 155; details: ref [46]; cited from earlier work
[4] = test system: GLP-1R variants E34*, W87R, H99Qfs*83, S155F, F169Sfs*13, R310W, and T353M; experiment: β-arrestin 2 recruitment; format: cell-based, human; details: HEK293 cells, BRET with GRK6, LoS variants E34*
[5] = test system: GLP-1R F321S and F66L; experiment: cAMP signaling, variants F66L and F321S; format: cell-based, human; details: COS-7 cells, predicted pLoF
[6] = test system: GLP-1R variants S79L, W87R, R310W, R421W, and A449V; experiment: Homologous competition binding, 5 LoS variants with maintained binding; set-up: species or system human; details: COS-7 cells
[7] = test system: GLP-1R, alanine at position 353; details: alanine mutation at position 353; ref [46]; cited from earlier work
[8] = test system: GLP-1R P7L, R131Q, G168S, and A316T; experiment: GLP-1R signaling, variants P7L, R131Q, G168S, A316T; format: cell-based, human; details: present study, COS-7 and HEK-293 cells
[9] = test system: 26 WT-like GLP-1R variants; experiment: cAMP measurement; format: cell-based, human; details: COS-7 cells
[10] = test system: GLP-1R A316T; details: A316T variant; agonist not given; ref [49]; cited from earlier work
[11] = test system: GLP-1R, alanine at position 87; details: ref [44]; cited from earlier work; remark: listed apart in the source
[12] = test system: GLP-1R, alanine at position 155; details: ref [46]; cited from earlier work; remark: listed apart in the source
[13] = test system: GLP-1R R310W; details: top of transmembrane helix 5, agonist not given, ref [45]; cited from earlier work
[14] = test system: GLP-1R variants E34*, H99Qfs*83, S155F, F169Sfs*13, and T353M; experiment: Homologous competition binding, 5 LoS variants without binding; set-up: species or system human; details: COS-7 cells, 125I-GLP-1(7-36)NH2, LoS variants E34*, F169Sfs*13, T353M
[15] = test system: 26 WT-like GLP-1R variants; experiment: β-arrestin 2 recruitment; format: cell-based, human; details: HEK293 cells, BRET with GRK6, 26 WT-like variants
[16] = test system: GLP-1R A316T; details: A316T variant; agonist not given; ref [49]; cited from earlier work; remark: listed apart in the source
[17] = test system: GLP-1R R421C; details: naturally occurring variant R421C; agonist not given; ref [42]; cited from earlier work

glucagon-like peptide 1 [GLP-1]
β-arrestin 2 recruitment, result in words [1]: maintained β-arrestin 2 recruitment | GLP-1 binding, alanine at position 87, result in words [2]: no altered GLP-1 binding | GLP-1 affinity, alanine at position 155, result in words [3]: affected cAMP production and GLP-1 affinity | β-arrestin 2 recruitment, result in words [4]: completely lost β-arrestin 2 recruitment | cAMP signaling, result in words [5]: normal cAMP signaling | GLP-1 binding, result in words [6]: maintained GLP-1 binding | cAMP production, alanine at position 353, result in words [7]: altered cAMP production | GLP-1R signaling, result in words [8]: WT-like GLP-1R signaling | change in cAMP potency vs WT (WT-like criterion) ([9]; 26 WT-like variants, EC50 change vs WT): < 5 fold | cAMP Emax (WT-like criterion) ([9]; 26 WT-like variants, Emax of at least 50% of the WT Emax): at least 50 % of the WT Emax | cAMP production, result in words ([9]; 26 variants, compared to WT): cAMP production similar to WT GLP-1R | β-arrestin recruitment, A316T [10]: 18 % of WT | cAMP signaling, alanine at position 87, result in words [11]: no altered GLP-1 binding or cAMP signaling | cAMP production, alanine at position 155, result in words [12]: affected cAMP production | efficacy, R310W, result in words [13]: reduce efficacy | receptor binding, result in words [14]: complete loss of binding; also recorded: no GLP-1 binding | β-arrestin 2 recruitment, result in words [15]: WT-like β-arrestin 2 recruitment | β-arrestin 2 recruitment average Emax ([15]; average, ± 6.6% (SEM)): 90.2 % of WT | signaling and binding, A316T, result in words [16]: WT-like signaling and binding properties | cAMP signaling, R421C, result in words [17]: no effect on cAMP signaling
